Reference: BindingDB's records for doi:10.1021/acs.jmedchem.9b00186 (Bristol-Myers Squibb Research & Development, 2019)
pIC50: −log10 of the molar value.

Test: Antagonist activity at PAR4 in human platelet rich plasma assessed as inhibition of gamma-thrombin-induced platelet aggregation preincubated for 5 mins followed by gamma-thrombin addition and measured in presence of recombinant hirudin

| pIC50 | Compound |
| --- | --- |
| 5.44 | COc1cc(OCc2ccccc2C)c2cc(-c3cn4nc(OC)sc4n3)oc2c1 |
| 5.89 | COc1nn2cc(-c3cc4c(OC)cccc4o3)nc2s1 [US9862730, Example 11] |
| 6.36 | COc1cc(OCc2cccc(C(F)(F)F)c2)c2cc(-c3cn4nc(OC)sc4n3)oc2c1 |
| 5.46 | COc1nn2cc(-c3cc4cccc(OC)c4o3)nc2s1 [US9862730, Example 9] |
| 6.26 | COc1cc(OCc2ccc(OCc3ccccc3)cc2)c2cc(-c3cn4nc(OC)sc4n3)oc2c1 |
| 6.09 | COc1cc(OCc2cccc(C#N)c2)c2cc(-c3cn4nc(OC)sc4n3)oc2c1 |
| < 4.52 | COc1nn2cc(-c3cc4ccc(OC)c(OC)c4o3)nc2s1 [US9862730, Example 10] |
| < 6.00 | COc1cccc(COc2cc(OC)cc3oc(-c4cn5nc(OC)sc5n4)cc23)c1 |
| 5.74 | COc1cc(OCc2ccc(C(F)(F)F)cc2)c2cc(-c3cn4nc(OC)sc4n3)oc2c1 |
| 5.60 | COc1cc(OCc2ccccc2OCc2ccccc2)c2cc(-c3cn4nc(OC)sc4n3)oc2c1 |
| 6.39 | COc1cc(OCc2cccc(Sc3ccccc3)c2)c2cc(-c3cn4nc(OC)sc4n3)oc2c1 |
| 5.92 | COc1cc(OCc2cccc(CCc3ccccc3)c2)c2cc(-c3cn4nc(OC)sc4n3)oc2c1 |
| 4.82 | COc1nn2cc(-c3cc4ccccc4o3)nc2s1 |
| < 5.52 | COc1ccc(COc2cc(OC)cc3oc(-c4cn5nc(OC)sc5n4)cc23)cc1 |
| < 6.00 | COc1cc(OCc2ccc(Cl)cc2)c2cc(-c3cn4nc(OC)sc4n3)oc2c1 |
| < 6.00 | COc1cc(OCc2cccc(CO)c2)c2cc(-c3cn4nc(OC)sc4n3)oc2c1 |

| pIC50 | Compound |
| --- | --- |
| 6.17 | COc1cc(OCc2cccc(Cl)c2)c2cc(-c3cn4nc(OC)sc4n3)oc2c1 |
| 6.22 | COc1cc(OCc2cccc(COc3ccccc3)c2)c2cc(-c3cn4nc(OC)sc4n3)oc2c1 |
| 6.32 | COc1ccc2cc(-c3cn4nc(OC)sc4n3)oc2c1 [US9862730, Example 71] |
| 6.11 | COc1cc(OCCc2ccccc2)c2cc(-c3cn4nc(OC)sc4n3)oc2c1 |
| 6.41 | COc1cc(OCc2cccc(Oc3ccccc3)c2)c2cc(-c3cn4nc(OC)sc4n3)oc2c1 |
| < 6.00 | COc1cc(OCc2ccccc2OC)c2cc(-c3cn4nc(OC)sc4n3)oc2c1 |
| < 4.52 | COc1ccc2oc(-c3cn4nc(OC)sc4n3)cc2c1 [US9862730, Example 93] |
| < 4.52 | COc1nn2cc(-c3cc4ccc(OCc5ccccc5)cc4o3)nc2s1 [US9862730, Example 104] |
| < 6.00 | COc1cc(OCc2ccccc2C(F)(F)F)c2cc(-c3cn4nc(OC)sc4n3)oc2c1 |
| 6.30 | COc1cc(OCCOCc2ccccc2)c2cc(-c3cn4nc(OC)sc4n3)oc2c1 |
| 5.00 | COc1nn2cc(-c3cc4c(OC)ccc(OC)c4o3)nc2s1 [US9862730, Example 103] |
| 6.32 | COc1cc(OCCOc2ccccc2)c2cc(-c3cn4nc(OC)sc4n3)oc2c1 |
| 5.57 | COc1cc(OCc2cccc(O)c2)c2cc(-c3cn4nc(OC)sc4n3)oc2c1 |
| 5.39 | COc1nn2cc(-c3cc4c(OCc5ccccc5)cccc4o3)nc2s1 [US9862730, Example 210] |
| 6.28 | COc1cc(OC)c2cc(-c3cn4nc(OC)sc4n3)oc2c1 [US9862730, Example 73] |
| < 5.52 | COc1cc(OCc2ccccc2Cl)c2cc(-c3cn4nc(OC)sc4n3)oc2c1 |

Test: Antagonist activity at PAR4 in human washed platelets assessed as inhibition of gamma-thrombin-induced platelet aggregation preincubated for 5 mins followed by gamma-thrombin addition and measured every 50 secs for up to 15 mins starting from 10 secs post gamma-thrombin addition in presence of recombinant hirudin

| pIC50 | Compound |
| --- | --- |
| < 4.52 | Cc1nn2cc(-c3cc4ccccc4o3)nc2s1 [US9862730, Example 41] |
| 6.46 | COc1nn2cc(-c3cc4c(OC)cccc4o3)nc2s1 [US9862730, Example 11] |
| < 4.52 | c1ccc2oc(-c3cn4nc(C5CC5)sc4n3)cc2c1 [US9862730, Example 63] |
| 6.62 | COc1nn2cc(-c3cc4cccc(OC)c4o3)nc2s1 [US9862730, Example 9] |
| 5.62 | CCc1nn2cc(-c3cc4ccccc4o3)nc2s1 [US9862730, Example 47] |
| < 4.52 | COc1nn2cc(-c3cc4ccc(OC)c(OC)c4o3)nc2s1 [US9862730, Example 10] |
| 5.68 | CCOc1nn2cc(-c3cc4ccccc4o3)nc2s1 |
| < 4.52 | CS(=O)(=O)c1nn2cc(-c3cc4ccccc4o3)nc2s1 |
| 6.62 | COc1nn2cc(-c3cc4ccccc4o3)nc2s1 |
| < 4.52 | CC(C)Oc1nn2cc(-c3cc4ccccc4o3)nc2s1 |
| 6.92 | COc1ccc2cc(-c3cn4nc(OC)sc4n3)oc2c1 [US9862730, Example 71] |
| < 4.52 | COc1ccc2oc(-c3cn4nc(OC)sc4n3)cc2c1 [US9862730, Example 93] |
| 5.74 | COc1nn2cc(-c3cc4ccc(OCc5ccccc5)cc4o3)nc2s1 [US9862730, Example 104] |
| 5.68 | COc1nn2cc(-c3cc4c(OC)ccc(OC)c4o3)nc2s1 [US9862730, Example 103] |
| 5.51 | COc1nn2cc(-c3cc4c(OCc5ccccc5)cccc4o3)nc2s1 [US9862730, Example 210] |
| 7.13 | COc1cc(OC)c2cc(-c3cn4nc(OC)sc4n3)oc2c1 [US9862730, Example 73] |
| 6.57 | CSc1nn2cc(-c3cc4ccccc4o3)nc2s1 [US9862730, Example 1] |
| < 4.52 | CNc1nn2cc(-c3cc4ccccc4o3)nc2s1 [US9862730, Example 69] |
